Patent US20090105207A1, “Copper (1) Complex” (priority 2006, published 2009)
Blank lines part the entries; values can stand above or below the molecule they belong to.

Key:
rats [1] = test: Bioavailability studies on rats (liver and kidney functions, blood picture, lipid profile); assay type: in vivo; conditions: for Lipid profile: all groups
Excerpt: The study on rats included five groups, group 1 control, 2 receiving cu, group.2 pyrazinic, group 3 complex with large dose, & group 5 receiving complex with small dose.

[2] = tested on: male infertility (sperm count, motility); test: Male infertility study, 20 patients; assay type: in vivo, human
fatigue = test: Clinical trials for treatment of fatigue in humans; assay type: in vivo
[3] = tested on: stem cells, CD4 and CD8 cells; test: In vivo stem cell, CD4 and CD8 counts before and during medication; conditions: before and at regular intervals of medication
Excerpt: We hypothesized that the drug may have a role in stimulating the stem cells present in the various organs to differentiate. […] In vivo we measured the stem cell count together with CD8 and CD4 cells before, and at regular intervals of medication.

[4] = Solubility of the complex in solvents; assay type: physicochemical
Excerpt: Solubility: the complex is insoluble in non polar solvents, e.g. benzene, carbon tetrachloride, etc., and insoluble in polar solvents: water, methanol, ethanol, acetone, but soluble in these solvents upon heating in inert atmosphere, to prevent oxidation.

rats [5] = test: Toxicity of the complex (LD50, mortality within 24 hrs); assay type: in vivo
Experimental: Seventy two rats (250+/−2.0 g b.wt) were randomly located into 12 groups of 6 rats each
Mortality in each group were recorded within 24 hrs. The LD50 was calculated according to Behecens and Karbere (1970)

dilated Cardiomyopathy = test: Clinical trials in cardiomyopathy; assay type: in vivo, human; conditions: clinically and in ECHO cardiographic measurements
Excerpt: Improvement is shown both clinically and in the ECHO cardiographic measurements.

[6] = Stability of the solid complex; assay type: physicochemical
[7] = tested on: muscle weakness (muscle dystrophies, post stroke weakness); test: Clinical trials for treatment of weakness of muscles; assay type: in vivo, human
Excerpt: The complex used in treatment of muscle weakness for different underlying causes (muscle dystrophies post stroke weakness). […] When the patient reaches the optimum dose, onset of improvement in muscle power is observed within hours of drug intake.

[8] = complex at large and small dose

- Lipid profile (rats [1]): didn't show significant difference
- Liver and kidney functions versus control group (rats [1]; [8]): no significant difference
Molecule: O=C(O)c1cnccn1 [pyrazinic, pyrazinic acid, reference compound]

Molecule: [CuCI (pyrazinic acid) 2]. 2H2O [complex]
- Sperm motility ([2]; all cases): significant improvement
- Healthy babies, azospermic patients ([2]; among the seven responding azospermic patients): two of them got healthy babies
- Healthy babies, oligospermia ([2]; oligospermia cases): four cases got also healthy babies
- Sperm count in azospermic patients ([2]; seven out of nine patients, within 6 weeks of treatment): 1.5-3 millions/hpf
- Sperm count in oligospermia ([2]; within 1 month of treatment): doubling of the count
- Agonizing fatigue in Parkinsonism, myositis, disseminated sclerosis (fatigue): improves markedly
- Effect in all types of fatigue (fatigue): relieved the muscle pain, increased the physical activity and productivity
- CD4/CD8 [3]: no disturbance
- CD4 and CD8 number [3]: increase
- Stem cell count [3]: significant decrease
- Solubility in non polar solvents ([4]; e.g. benzene, carbon tetrachloride): insoluble
- Solubility in polar solvents ([4]; water, methanol, ethanol, acetone): insoluble
- Solubility in polar solvents upon heating ([4]; water, methanol, ethanol, acetone, heating in inert atmosphere): soluble
- LD50 (intrapperitoneally) (rats [5]; intraperitoneal): 128 mg/kg
- LD50 (oral) (rats [5]; oral): 1104.17 mg/kg
- Cases improved, dilated cardiomyopathy due to other causes (dilated Cardiomyopathy): 80%
- Improvement of dilated cardiomyopathy secondary to Duchenne muscle dystrophy (dilated Cardiomyopathy): improved all cases
- Lipid profile (rats [1]): didn't show significant difference
- Liver and kidney functions versus control group (rats [1]; [8]): no significant difference
- Lymphocytic count (complete blood picture) (rats [1]; complex at large and small dose, not exceeding the normal range): increase of lymphocytic count
- Stability [6]: sufficiently stable when well-dried
- Clinical improvement in DMS patients ([7]; affected by age, weight and degree of dystrophy): dose dependant
- Onset of improvement in muscle power ([7]; at optimum dose, after drug intake): within hours
